The values below come from patent publication US10478501B2, “Method of treating disorders using a pharmaceutical composition of oligopeptides” (Merck Patent GmbH, priority 2011, dated 2019).

SMILES strings stand for the structures.

This series can be described thus: Water Vapour Sorption (dynamic vapour experiments). It is filed as physicochemical. As to conditions: 25° C., up to 98% relative humidity, acc. to Ph. Eur. criteria. The source says:
Preferably, the anhydrates as described herein and especially the crystalline form A1 can be characterised, alternatively or additionally, by dynamic vapour experiments. The results can be obtained by standard techniques as described in Rolf Hilfiker, ‘Polymorphism in the Pharmaceutical Industry’, Wiley-VCH. Weinheim 2006 (Chapter 9: Water Vapour Sorption, and references therein). […] Eur. criteria.

Turning to `CC(C)[C@H]1C(=O)N[C@@H](CCCNC(=N)N)C(=O)NCC(=O)N[C@@H](CC(=O)O)C(=O)N[C@H](Cc2ccccc2)C(=O)N1C` [crystalline form A1, cyclo-(Arg-Gly-Asp-DPhe-NMeVal)], the “hygroscopicity (Water Vapour Sorption behaviour)” value is listed as “non-hygroscopic”.
